# Test results from patent US5281603A, “Angiotensin II receptor blocking 2,3,6 substituted quinazolinones” (American Cyanamid Company, priority 1993, dated 1994).
# Biological target: T1, Angiotensin II Receptor (Bos taurus, UniProt P25104)
# T1 construct: The brownish tissue forming the adrenal cortex is scraped off and finely minced with scissors before homogenization; from tissue; host or cells: beef adrenal cortex, microsomal membranes (100,000×g pellet)
# T1 sequence (P25104 1-359): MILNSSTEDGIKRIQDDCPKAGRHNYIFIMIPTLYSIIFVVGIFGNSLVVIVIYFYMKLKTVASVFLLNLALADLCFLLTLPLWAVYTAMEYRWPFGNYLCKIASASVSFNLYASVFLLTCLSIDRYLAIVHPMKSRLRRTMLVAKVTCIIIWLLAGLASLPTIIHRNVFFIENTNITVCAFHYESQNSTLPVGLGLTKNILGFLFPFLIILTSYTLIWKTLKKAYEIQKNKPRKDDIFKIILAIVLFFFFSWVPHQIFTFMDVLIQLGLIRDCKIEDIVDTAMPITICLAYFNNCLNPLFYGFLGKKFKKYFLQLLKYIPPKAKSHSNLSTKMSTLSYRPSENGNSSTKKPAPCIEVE
# Assay: Angiotensin II Receptor Binding: displacement of [^125 I](Sar^1,Ile^8)AngII from beef adrenal cortex membranes
# Set-up: species or system beef (bovine)
# Settings: radioligand; non-specific binding with 1.0 uM unlabeled (Sar^1,Ile^8)AngII
# Description: Beef adrenals are obtained from a local slaughter house (Maxwell-Cohen). [^125 I](Sar^1,Ile^8)AngII, S.A. 2200 Ci/mmole, is purchased from Dupont (NEN®, Boston, Mass.). All unlabeled AngII analogs, Dimethylsulfoxide (DMSO), nucleotides, bovine serum albumin (BSA) are purchased from Sigma Chemical Co., St. Louis, Mo. U.S.A.
# Approximately sixteen (16) to twenty (20) beef adrenal glands are processed as follows: fresh adrenal glands received on crushed ice are cleaned of fatty tissues and the tough membranes encapsulating the glands are removed and discarded. The brownish tissue forming the adrenal cortex is scraped off and finely minced with scissors before homogenization. Care is taken to avoid contamination with medullary tissue during dissection. The scraped cortices are suspended in twenty volumes of an ice-cold buffer medium consisting of 10 mM Tris.HCl (pH 7.4 at 22° C.) and containing 1.0 mM EDTA and 0.2M sucrose. Unless otherwise indicated, all subsequent operations are done at 4° C. […] The homogenate is centrifuged first at low speed (3,000×g) for 10 min. […] This P2 pellet is discarded and the liquid phase is carefully decanted off in clean centrifuge tubes and recentrifuged at high speed (100,000×g) for 60 min. The translucent final pellet is harvested and combined in a small volume (20-50.0 ml) of 50.0 mM Tris.HCl buffer, pH 7.2. […] The pelleted membrane is reconstituted in 50.0 mM Tris.HCl buffer containing 0.1 mM of phenylmethylsulfonyl fluoride (PMSF) to give approximately a protein concentration of 2.5 mg per ml of tissue suspension. The membrane preparation is finally aliquoted in 1.0 ml volumes and stored at -70° C. until use in the binding assays. […]
# The wells are left undisturbed for 60 min. at room temperature. […] The filters are removed from the filter grid and counted in a Parkard® Cobra Gamma Counter for 1 min. […] The binding data are analyzed by the non-linear interactive "LUNDON-1" program (LUNDON SOFTWARE Inc., Cleveland, Ohio U.S.A.).
substance,measurement,value
"[^125 I](Sar^1,Ile^8)AngII [reference compound]",Specific binding,greater than 90%
